Test results taken from patent publication US20240270741A1 (Cogent Biosciences, Inc., priority 2023, published 2024).
Where a name gives a salt, the structure may show the parent alone.

biological target: FGFR2 (Homo sapiens, UniProt P21802); test: FGFR wild type enzyme assay (HTRF KinEASE-TK), FGFR2; details: Enz FGFR2 (nM)
Sequence (P21802 399-821 limits assumed): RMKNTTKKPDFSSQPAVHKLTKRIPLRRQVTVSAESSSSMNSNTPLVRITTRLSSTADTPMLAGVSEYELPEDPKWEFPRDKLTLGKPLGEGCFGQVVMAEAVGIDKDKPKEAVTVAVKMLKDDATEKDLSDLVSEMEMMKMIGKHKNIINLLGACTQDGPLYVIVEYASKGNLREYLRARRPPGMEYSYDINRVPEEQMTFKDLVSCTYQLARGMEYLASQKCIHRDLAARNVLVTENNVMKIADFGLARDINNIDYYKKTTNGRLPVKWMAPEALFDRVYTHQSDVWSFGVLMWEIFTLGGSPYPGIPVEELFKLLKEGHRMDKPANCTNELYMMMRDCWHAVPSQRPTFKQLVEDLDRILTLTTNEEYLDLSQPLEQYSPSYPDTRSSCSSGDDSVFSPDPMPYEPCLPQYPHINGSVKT
Method: Activity against FGFR wild type and mutant enzymes were determined in biochemical assays using purified intracellular domains of the respective isoforms using HTRF KinEASE-TK assay technology from CisBio, now PerkinElmer. (Catalogue number 62TK0PEC). Briefly test compounds were tested in 11 point 1:3 serial dilutions, typical final concentration ranges from 10,000 nM to 0.17 nM. Test compounds were dissolved in DMSO and added to assay plates using acoustic transfer. Enzyme was pre-incubated with test compound for 30 minutes and the assay was initiated by addition of ATP and TK-peptide substrate. After 60 minutes at room temperature the reaction was quenched with detection reagent and incubated for an additional 60 minutes at room temperature. The plates were read using a multimode reader and the emission ratio of 665 nm to 615 nm was determined. This ratio was converted to percent of control (POC). [1-(high control-sample signal)/(high control-low control)]*100. Wells without compound were used to determine high control values and wells without enzyme were used to determine low control values. The POC values were fit using a four-parameter logistic model and the value where the fit curve was equal to 50 POC was reported as the IC50 using the Signals Vitro Vivo software package (PerkinElmer). Final assay conditions were: 50 mM HEPES pH7.5, 10 mM MgCl2, 1 mM EDTA, 0.01% Brij-35, 2 mM MnCl2, 1 mM DTT, and 0.5 uM TK-peptide.

SMILES	IC50
Cc1cccnc1Sc1cc(-c2cnn(C3CCNCC3)c2)cn2ncc(C#N)c12 [Example 65, 4-((3-methylpyridin-2-yl)thio)-6-(1-(piperidin-4-yl)-1H-pyrazol-4-yl)pyrazolo[1,5-a]pyridine-3-carbonitrile, HCl]	4 nM
Cc1cc(Sc2cc(-c3cnn(C4CCNCC4)c3)cn3ncc(C#N)c23)n(C)n1 [Example 66, 4-((1,3-dimethyl-1H-pyrazol-5-yl)thio)-6-(1-(piperidin-4-yl)-1H-pyrazol-4-yl)pyrazolo[1,5-a]pyridine-3-carbonitrile, HCl]	12 nM
N#Cc1cccc(Sc2cc(-c3cnn(C4CCNCC4)c3)cn3ncc(C#N)c23)c1 [Example 69, 4-((3-cyanophenyl)thio)-6-(1-(piperidin-4-yl)-1H-pyrazol-4-yl)pyrazolo[1,5-a]pyridine-3-carbonitrile]	8 nM
Cc1ccc(F)c(Sc2cc(-c3cnn(C4CCNCC4)c3)cn3ncc(C#N)c23)n1 [Example 70, 4-((3-fluoro-6-methylpyridin-2-yl)thio)-6-(1-(piperidin-4-yl)-1H-pyrazol-4-yl)pyrazolo[1,5-a]pyridine-3-carbonitrile, HCl]	3 nM
Cc1ccnc(Sc2cc(-c3cnn(C4CCNCC4)c3)cn3ncc(C#N)c23)c1C [Example 72, 4-((3,4-dimethylpyridin-2-yl)thio)-6-(1-(piperidin-4-yl)-1H-pyrazol-4-yl)pyrazolo[1,5-a]pyridine-3-carbonitrile]	3 nM
N#Cc1cnn2cc(-c3cnn([C@H]4CCNC4)c3)cc(Sc3ccccn3)c12 [Example 73, (S)-4-(pyridin-2-ylthio)-6-(1-(pyrrolidin-3-yl)-1H-pyrazol-4-yl)pyrazolo[1,5-a]pyridine-3-carbonitrile, HCl]	4 nM
Cc1c(-c2cc(Sc3ncccc3F)c3c(C#N)cnn3c2)cnn1[C@H]1CCCNC1 [Example 86, 4-[(3-fluoro-2-pyridyl)sulfanyl]-6-[5-methyl-1-[(3S)-3-piperidyl]pyrazol-4-yl]pyrazolo[1,5-a]pyridine-3-carbonitrile]	2 nM
CCSc1cc(-c2cnn([C@H]3CCCN(C[C@H](O)CO)C3)c2)cn2ncc(C#N)c12 [Example 87, 6-[1-[(3S)-1-[(2S)-2,3-dihydroxypropyl]-3-piperidyl]pyrazol-4-yl]-4-ethylsulfanyl-pyrazolo[1,5-a]pyridine-3-carbonitrile]	1 nM
N#Cc1cnn2cc(-c3cnn(C4CCN(CCO)CC4)c3)cc(Sc3ccccn3)c12 [Example 90, 6-[1-[1-(2-hydroxyethyl)-4-piperidyl]pyrazol-4-yl]-4-(2-pyridylsulfanyl)pyrazolo[1,5-a]pyridine-3-carbonitrile]	2 nM
N#Cc1cnn2cc(-c3cnn([C@H]4CCCN(CCO)C4)c3)cc(Sc3ccccn3)c12 [Example 91, 6-[1-[(3S)-1-(2-hydroxyethyl)-3-piperidyl]pyrazol-4-yl]-4-(2-pyridylsulfanyl)pyrazolo[1,5-a]pyridine-3-carbonitrile]	2 nM
CC(C)N1CCC(n2cc(-c3cc(Sc4ccccn4)c4c(C#N)cnn4c3)cn2)CC1 [Example 92, 6-[1-(1-isopropyl-4-piperidyl)pyrazol-4-yl]-4-(2-pyridylsulfanyl)pyrazolo[1,5-a]pyridine-3-carbonitrile]	3 nM
CC(=O)N1CCC(n2cc(-c3cc(Sc4ccccn4)c4c(C#N)cnn4c3)cn2)CC1 [Example 93, 6-[1-(1-acetyl-4-piperidyl)pyrazol-4-yl]-4-(2-pyridylsulfanyl)pyrazolo [1,5-a]pyridine-3-carbonitrile]	3 nM
CN1CCC[C@H]1C(=O)N1CCC(n2cc(-c3cc(Sc4ccccn4)c4c(C#N)cnn4c3)cn2)CC1 [Example 94, 6-[1-[1-[(2S)-1-methylpyrrolidine-2-carbonyl]-4-piperidyl]pyrazol-4-yl]-4-(2-pyridylsulfanyl) pyrazolo[1,5-a]pyridine-3-carbonitrile]	2 nM
N#Cc1cnn2cc(-c3ccc(N4CCCC4)nc3)cc(Sc3ccccn3)c12 [Example 95, 4-(2-pyridylsulfanyl)-6-(6-pyrrolidin-1-yl-3-pyridyl)pyrazolo[1,5-a]pyridine-3-carbonitrile]	13 nM
N#Cc1cnn2cc(-c3ccc(OCCN4CCOCC4)nc3)cc(Sc3ccccn3)c12 [Example 96, 6-[6-(2-morpholinoethoxy)-3-pyridyl]-4-(2-pyridylsulfanyl) pyrazolo[1,5-a]pyridine-3-carbonitrile]	82 nM
N#Cc1cnn2cc(-c3cnn([C@H]4CCN(CCO)C4)c3)cc(Sc3ccccn3)c12 [Example 97, (S)-6-(1-(1-(2-hydroxyethyl)pyrrolidin-3-yl)-1H-pyrazol-4-yl)-4-(pyridin-2-ylthio)pyrazolo[1,5-a]pyridine-3-carbonitrile]	4 nM
Cc1c(-c2cc(Sc3ccccn3)c3c(C#N)cnn3c2)cnn1C1CCN(C(=O)CO)CC1 [Example 98, 6-(1-(1-(2-hydroxyacetyl)piperidin-4-yl)-5-methyl-1H-pyrazol-4-yl)-4-(pyridin-2-ylthio)pyrazolo[1,5-a]pyridine-3-carbonitrile]	7 nM

More lines, now with the values ahead:

IC50	SMILES
1 nM	N#Cc1cnn2cc(-c3cnn([C@H]4CCCNC4)c3)cc(Sc3ncccc3F)c12 [Example 63, 4-[(3-fluoro-2-pyridyl)sulfanyl]-6-[1-[(3S)-3-piperidyl]pyrazol-4-yl]pyrazolo[1,5-a]pyridine-3-carbonitrile]
61 nM	N#Cc1cnn2cc(-c3cnn([C@H]4CCCNC4)c3)cc(Sc3cc(C(F)(F)F)ccn3)c12 [Example 64, 6-[1-[(3S)-3-piperidyl]pyrazol-4-y1]-4-[[4-(trifluoromethyl)-2-pyridyl]sulfanyl]pyrazolo[1,5-a]pyridine-3-carbonitrile]
4 nM	N#Cc1cnn2cc(-c3cnn([C@H]4CCCNC4)c3)cc(Sc3ncccc3C(F)(F)F)c12 [Example 67]
68 nM	N#Cc1cnn2cc(-c3cnn([C@H]4CCCNC4)c3)cc(Sc3cccc(C(F)(F)F)n3)c12 [Example 68, 6-[1-[(3S)-3-piperidyl]pyrazol-4-yl]-4-[[6-(trifluoromethyl)-2-pyridyl]sulfanyl] pyrazolo[1,5-a]pyridine-3-carbonitrile]
6 nM	N#Cc1cnn2cc(-c3cnn([C@H]4CCCNC4)c3)cc(Sc3ccccc3CO)c12 [Example 74, 4-[2-(hydroxymethyl)phenyl]sulfa-nyl-6-[1-[(3S)-3-piperidyl]pyrazol-4-yl]pyrazolo[1,5-a]pyridine-3-carbonitrile]
22 nM	N#Cc1cnn2cc(-c3cnn([C@H]4CCCNC4)c3)cc(Sc3cccc(C(F)F)n3)c12 [Example 75, 4-[[6-(difluoromethyl)-2-pyridyl]sulfanyl]-6-[1-[(3S)-3-piperidyl]pyrazol-4-yl]pyrazolo[1,5-a]pyridine-3-carbonitrile]
237 nM	N#Cc1cnn2cc(-c3cnn([C@H]4CCCNC4)c3)cc(Sc3ccncn3)c12 [Example 76, 6-[1-[(3S)-3-piperidyl]pyrazol-4-yl]-4-pyrimidin-4-ylsulfanyl-pyrazolo[1,5-a]pyridine-3-carbonitrile]
99 nM	N#Cc1cccc(Sc2cc(-c3cnn([C@H]4CCCNC4)c3)cn3ncc(C#N)c23)n1 [Example 77, 4-[(6-cyano-2-pyridyl)sulfanyl]-6-[1-[(3S)-3-piperidyl]pyrazol-4-yl]pyrazolo[1,5-a]pyridine-3-carbonitrile]
27 nM	Cc1cc(F)cc(Sc2cc(-c3cnn([C@H]4CCCNC4)c3)cn3ncc(C#N)c23)n1 [Example 78, 4-[(4-fluoro-6-methyl-2-pyridyl)sulfanyl]-6-[1-[(3S)-3-piperidyl]pyrazol-4-yl]pyrazolo[1,5-a]pyridine-3-carbonitrile]
2 nM	CC(C)OC[C@@H](C)Sc1cc(-c2cnn([C@H]3CCCNC3)c2)cn2ncc(C#N)c12 [Example 79, 4-[(1R)-2-isopropoxy-1-methyl-ethyl]sulfanyl-6-[1-[(3S)-3-piperidyl]pyrazol-4-yl]pyrazolo[1,5-a]pyridine-3-carbonitrile]
8 nM	Cc1ccncc1Sc1cc(-c2cnn([C@H]3CCCNC3)c2)cn2ncc(C#N)c12 [Example 80, 4-[(4-methyl-3-pyridyl)sulfanyl]-6-[1-[(3S)-3-piperidyl]pyrazol-4-yl]pyrazolo[1,5-a]pyridine-3-carbonitrile]
31 nM	Cc1ncccc1Sc1cc(-c2cnn([C@H]3CCCNC3)c2)cn2ncc(C#N)c12 [Example 81, 4-[(2-methyl-3-pyridyl)sulfanyl]-6-[1-[(3S)-3-piperidyl]pyrazol-4-yl]pyrazolo[1,5-a]pyridine-3-carbonitrile]
32 nM	N#Cc1cnn2cc(-c3cnn([C@H]4CCCNC4)c3)cc(Sc3cccnn3)c12 [Example 82, 6-[1-[(3S)-3-piperidyl]pyrazol-4-yl]-4-pyridazin-3-ylsulfanyl-pyrazolo[1,5-a]pyridine-3-carbonitrile]
19 nM	N#Cc1cnn2cc(-c3cnn([C@H]4CCCNC4)c3)cc(Sc3cncnc3)c12 [Example 83, 6-[1-[(3S)-3-piperidyl]pyrazol-4-yl]-4-pyrimidin-5-ylsulfanyl-pyrazolo[1,5-a] pyridine-3-carbonitrile]
11 nM	Cc1ccnc(C)c1Sc1cc(-c2cnn([C@H]3CCCNC3)c2)cn2ncc(C#N)c12 [Example 84, 4-[(2,4-dimethyl-3-pyridyl)sulfanyl]-6-[1-[(3S)-3-piperidyl]pyrazol-4-yl]pyrazolo[1,5-a]pyridine-3-carbonitrile]
7 nM	Cc1c(-c2cc(SCCOC(C)C)c3c(C#N)cnn3c2)cnn1[C@H]1CCCNC1 [Example 85, 4-(2-isopropoxyethylsulfanyl)-6-[5-methyl-1-[(3S)-3-piperidyl]pyrazol-4-yl]pyrazolo[1,5-a]pyridine-3-carbonitrile]
1 nM	CC(C)Sc1cc(-c2cnn([C@H]3CCCN(C[C@H](O)CO)C3)c2)cn2ncc(C#N)c12 [Example 88, 6-[1-[(3S)-1-[(2S)-2,3-dihydroxypropyl]-3-piperidyl]pyrazol-4-yl]-4-isopropylsulfanyl-pyrazolo[1,5-a]pyridine-3-carbonitrile]
1 nM	CC(C)Sc1cc(-c2cnn([C@H]3CCCN(CCO)C3)c2)cn2ncc(C#N)c12 [Example 89, 6-[1-[(3S)-1-(2-hydroxyethyl)-3-piperidyl]pyrazol-4-yl]-4-isopropylsulfanyl-pyrazolo[1,5-a]pyridine-3-carbonitrile]
